Paper PMC8550792, “Evolution of kinase polypharmacology across HSP90 drug discovery” (Cell Chemical Biology, 2021)

Legend:
Assay in all cases: biochemical
Assay type in all cases: biochemical
[1] = target: T1, 382 unique human kinases (Homo sapiens, UniProt O43353); settings: RIPK2, 10 uM; for remaining activity at 10 µM: read-out: % Enzyme Activity (relative to DMSO controls)
T1 construct: purchased Reaction Biology (HotSpot contract assay)

[2] = target: T2, 382 unique human kinases (Homo sapiens, UniProt Q8IW41); settings: MAPKAPK5/PRAK, compound at 10 uM, duplicate values; for remaining activity at 10 µM: read-out: % Enzyme Activity (relative to DMSO controls)
T2 construct: purchased Reaction Biology (HotSpot contract assay)
T2 sequence (Q8IW41 1-473): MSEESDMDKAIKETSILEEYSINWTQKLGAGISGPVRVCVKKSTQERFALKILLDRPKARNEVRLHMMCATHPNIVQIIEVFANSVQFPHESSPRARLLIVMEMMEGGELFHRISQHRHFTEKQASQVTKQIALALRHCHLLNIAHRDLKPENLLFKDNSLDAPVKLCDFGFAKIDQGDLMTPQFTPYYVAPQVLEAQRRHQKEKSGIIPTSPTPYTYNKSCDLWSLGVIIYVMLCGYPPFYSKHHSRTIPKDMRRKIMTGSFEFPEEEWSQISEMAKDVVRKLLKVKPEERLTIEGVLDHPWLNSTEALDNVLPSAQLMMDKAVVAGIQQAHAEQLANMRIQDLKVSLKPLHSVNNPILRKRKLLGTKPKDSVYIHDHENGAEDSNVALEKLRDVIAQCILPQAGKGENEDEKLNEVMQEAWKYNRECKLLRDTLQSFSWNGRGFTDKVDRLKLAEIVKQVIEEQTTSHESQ

[3] = target: T3, 382 unique human kinases (Homo sapiens, UniProt P10721, D820Y); settings: c-Kit (D820Y), 10 uM; for remaining activity at 10 µM: read-out: % Enzyme Activity (relative to DMSO controls)
T3 construct: purchased Reaction Biology (HotSpot contract assay)
T3 sequence (P10721 26-976 D820Y): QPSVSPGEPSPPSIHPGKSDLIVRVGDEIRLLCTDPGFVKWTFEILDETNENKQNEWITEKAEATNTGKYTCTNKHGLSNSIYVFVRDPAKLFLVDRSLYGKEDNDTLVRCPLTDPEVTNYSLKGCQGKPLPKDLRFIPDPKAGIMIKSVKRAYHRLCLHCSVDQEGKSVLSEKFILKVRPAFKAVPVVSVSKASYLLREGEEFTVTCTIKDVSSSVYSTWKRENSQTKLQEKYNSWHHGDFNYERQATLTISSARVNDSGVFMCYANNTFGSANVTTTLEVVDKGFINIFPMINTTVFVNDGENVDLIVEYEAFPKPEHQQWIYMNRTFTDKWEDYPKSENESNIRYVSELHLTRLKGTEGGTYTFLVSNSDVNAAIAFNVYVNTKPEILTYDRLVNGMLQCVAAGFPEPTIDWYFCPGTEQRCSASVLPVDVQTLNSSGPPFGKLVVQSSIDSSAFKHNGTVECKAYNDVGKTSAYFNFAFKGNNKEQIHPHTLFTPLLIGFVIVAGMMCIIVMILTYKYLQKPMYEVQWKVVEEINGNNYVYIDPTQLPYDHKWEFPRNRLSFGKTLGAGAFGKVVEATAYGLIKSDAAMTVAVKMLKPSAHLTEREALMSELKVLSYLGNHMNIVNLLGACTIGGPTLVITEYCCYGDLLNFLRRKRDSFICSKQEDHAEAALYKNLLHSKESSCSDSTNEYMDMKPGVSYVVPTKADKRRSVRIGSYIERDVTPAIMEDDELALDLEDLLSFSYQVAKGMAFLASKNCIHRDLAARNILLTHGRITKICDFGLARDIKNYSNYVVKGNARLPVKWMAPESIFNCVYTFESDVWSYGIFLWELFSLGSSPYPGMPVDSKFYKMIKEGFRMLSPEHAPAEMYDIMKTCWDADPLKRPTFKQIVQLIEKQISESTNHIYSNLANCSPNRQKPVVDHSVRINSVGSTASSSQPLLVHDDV

[4] = target: T4, 382 unique human kinases (Homo sapiens, UniProt P53778); settings: P38g, compound at 10 uM, duplicate values; for remaining activity at 10 µM: read-out: % Enzyme Activity (relative to DMSO controls)
T4 construct: purchased Reaction Biology (HotSpot contract assay)
T4 sequence (P53778 1-367): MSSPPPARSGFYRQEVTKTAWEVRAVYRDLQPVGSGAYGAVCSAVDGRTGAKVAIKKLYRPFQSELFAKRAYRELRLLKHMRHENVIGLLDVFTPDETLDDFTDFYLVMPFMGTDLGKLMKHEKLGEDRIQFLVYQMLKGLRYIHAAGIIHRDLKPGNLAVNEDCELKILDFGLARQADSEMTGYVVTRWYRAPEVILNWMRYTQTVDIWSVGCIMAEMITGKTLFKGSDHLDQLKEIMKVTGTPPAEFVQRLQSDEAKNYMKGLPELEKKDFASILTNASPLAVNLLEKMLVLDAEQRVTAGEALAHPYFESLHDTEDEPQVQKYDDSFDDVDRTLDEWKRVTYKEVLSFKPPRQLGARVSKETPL

[5] = target: T5, 382 unique human kinases (Homo sapiens, UniProt P53350); settings: PLK1, [ATP] 30 µM
T5 construct: purchased Reaction Biology (HotSpot contract assay)
T5 sequence (P53350 whole entry): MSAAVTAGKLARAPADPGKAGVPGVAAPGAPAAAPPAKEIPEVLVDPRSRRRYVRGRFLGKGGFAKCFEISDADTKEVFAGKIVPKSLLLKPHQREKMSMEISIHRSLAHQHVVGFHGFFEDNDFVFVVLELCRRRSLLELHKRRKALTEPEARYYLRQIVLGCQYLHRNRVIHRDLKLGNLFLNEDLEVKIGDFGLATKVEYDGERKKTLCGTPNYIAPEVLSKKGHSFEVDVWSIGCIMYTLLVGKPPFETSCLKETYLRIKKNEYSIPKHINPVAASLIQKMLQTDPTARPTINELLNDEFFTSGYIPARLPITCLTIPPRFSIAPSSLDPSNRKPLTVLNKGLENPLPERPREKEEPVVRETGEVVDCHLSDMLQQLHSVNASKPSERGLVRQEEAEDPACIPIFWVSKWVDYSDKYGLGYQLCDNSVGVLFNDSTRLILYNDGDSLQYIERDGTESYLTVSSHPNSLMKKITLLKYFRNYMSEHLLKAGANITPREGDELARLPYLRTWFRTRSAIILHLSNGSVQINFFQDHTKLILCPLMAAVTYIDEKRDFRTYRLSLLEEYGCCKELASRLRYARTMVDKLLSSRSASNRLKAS

[6] = target: T6, 382 unique human kinases (Homo sapiens, UniProt Q9NQU5); settings: PAK6, 10 uM; for remaining activity at 10 µM: read-out: % Enzyme Activity (relative to DMSO controls)
T6 construct: purchased Reaction Biology (HotSpot contract assay)
T6 sequence (Q9NQU5 whole entry): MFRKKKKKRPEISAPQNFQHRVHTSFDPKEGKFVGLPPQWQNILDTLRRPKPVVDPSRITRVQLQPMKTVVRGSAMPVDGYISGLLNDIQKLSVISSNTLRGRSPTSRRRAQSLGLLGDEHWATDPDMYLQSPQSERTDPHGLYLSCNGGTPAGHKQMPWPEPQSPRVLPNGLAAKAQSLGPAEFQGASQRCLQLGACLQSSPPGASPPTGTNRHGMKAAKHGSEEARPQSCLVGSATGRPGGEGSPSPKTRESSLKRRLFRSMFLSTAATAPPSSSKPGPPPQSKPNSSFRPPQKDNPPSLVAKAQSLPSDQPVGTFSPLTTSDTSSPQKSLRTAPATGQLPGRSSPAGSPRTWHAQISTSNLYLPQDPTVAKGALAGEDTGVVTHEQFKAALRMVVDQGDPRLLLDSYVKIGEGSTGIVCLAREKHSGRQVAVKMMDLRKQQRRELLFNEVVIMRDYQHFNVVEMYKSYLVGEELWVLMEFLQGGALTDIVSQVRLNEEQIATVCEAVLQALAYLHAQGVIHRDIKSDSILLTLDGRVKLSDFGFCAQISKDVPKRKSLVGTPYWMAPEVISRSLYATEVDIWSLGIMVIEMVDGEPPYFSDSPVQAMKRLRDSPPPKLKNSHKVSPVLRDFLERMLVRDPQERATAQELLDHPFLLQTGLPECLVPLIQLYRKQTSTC

[7] = target: T7, 382 unique human kinases (Homo sapiens, UniProt Q13976); settings: PKG1a, 10 uM; for remaining activity at 10 µM: read-out: % Enzyme Activity (relative to DMSO controls)
T7 construct: purchased Reaction Biology (HotSpot contract assay)
T7 sequence (Q13976 1-671): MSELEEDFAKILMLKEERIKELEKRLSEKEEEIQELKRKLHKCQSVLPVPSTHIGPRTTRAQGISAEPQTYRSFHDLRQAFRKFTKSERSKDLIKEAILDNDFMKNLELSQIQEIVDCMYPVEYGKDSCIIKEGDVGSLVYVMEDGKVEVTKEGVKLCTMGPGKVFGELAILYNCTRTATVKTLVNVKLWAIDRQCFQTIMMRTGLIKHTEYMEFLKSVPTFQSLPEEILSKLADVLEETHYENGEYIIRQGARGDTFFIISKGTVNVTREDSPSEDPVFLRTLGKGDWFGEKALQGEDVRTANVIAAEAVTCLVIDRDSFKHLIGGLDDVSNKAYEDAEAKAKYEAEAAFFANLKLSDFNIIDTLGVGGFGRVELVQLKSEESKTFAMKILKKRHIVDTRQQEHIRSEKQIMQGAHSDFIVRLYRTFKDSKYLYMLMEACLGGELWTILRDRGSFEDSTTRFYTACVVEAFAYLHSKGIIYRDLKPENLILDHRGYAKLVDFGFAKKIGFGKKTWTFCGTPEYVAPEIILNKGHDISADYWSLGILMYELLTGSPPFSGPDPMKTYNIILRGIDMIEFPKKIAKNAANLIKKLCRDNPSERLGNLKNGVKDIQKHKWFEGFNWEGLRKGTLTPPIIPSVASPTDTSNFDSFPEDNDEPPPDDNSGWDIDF

[8] = compound 10 uM, read-out: % Enzyme Activity (relative to DMSO controls)

T1 sequence (O43353 whole entry): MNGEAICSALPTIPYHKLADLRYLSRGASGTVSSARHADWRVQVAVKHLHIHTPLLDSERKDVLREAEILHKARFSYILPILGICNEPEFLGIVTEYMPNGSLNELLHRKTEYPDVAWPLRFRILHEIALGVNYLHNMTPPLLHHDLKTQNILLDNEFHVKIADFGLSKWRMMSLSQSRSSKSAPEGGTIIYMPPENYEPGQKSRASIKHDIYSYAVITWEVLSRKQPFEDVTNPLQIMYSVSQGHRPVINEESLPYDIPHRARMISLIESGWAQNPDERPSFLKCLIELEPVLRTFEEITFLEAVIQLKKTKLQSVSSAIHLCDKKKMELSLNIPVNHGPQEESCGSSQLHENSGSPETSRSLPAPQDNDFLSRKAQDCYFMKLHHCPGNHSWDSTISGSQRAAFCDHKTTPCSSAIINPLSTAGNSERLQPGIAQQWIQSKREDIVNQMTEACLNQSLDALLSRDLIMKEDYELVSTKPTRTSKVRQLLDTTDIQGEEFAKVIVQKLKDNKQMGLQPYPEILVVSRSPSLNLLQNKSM

Row | Structure (SMILES) | remaining activity at 10 µM [1] [%] | remaining activity at 10 µM [2] [%] | remaining activity at 10 µM [3] [%] | remaining activity at 10 µM [4] [%] | remaining activity at 1 µM ([5]; compound 1 uM, read-out: % Enzyme Activity (relative to DMSO controls)) [%] | remaining activity at 10 µM [5, 8] [%] | remaining activity at 10 µM [6] [%] | remaining activity at 10 µM [7] [%] | % Enzyme Activity (relative to DMSO controls) [1] [%] | % Enzyme Activity (relative to DMSO controls) [2] [%] | % Enzyme Activity (relative to DMSO controls) [3] [%] | % Enzyme Activity (relative to DMSO controls) [4] [%] | % Enzyme Activity (relative to DMSO controls) ([5]; compound 10 uM) [%] | % Enzyme Activity (relative to DMSO controls) [6] [%] | % Enzyme Activity (relative to DMSO controls) [7] [%]
1 | CC(C)c1cc(-c2n[nH]c(=O)n2-c2ccc3c(ccn3C)c2)c(O)cc1O [Ganetespib (STA9090)] | 71.3 | 102 | 62.7 | 119 | – | – | – | – | – | – | – | – | – | – | –
2 | CC(C)c1cc(-c2n[nH]c(=O)n2-c2ccc3c(ccn3C)c2)c(O)cc1O [Ganetespib] | – | – | – | – | 88.2 | 11.5 | 106 | 90.9 | – | – | – | – | – | – | –
3 | CCNC(=O)c1noc(-c2cc(C(C)C)c(O)cc2O)c1-c1ccc(CN2CCOCC2)cc1 [Luminespib (AUY-922)] | 112 | 104 | 71.4 | 106 | – | – | – | – | 109.60 | 101.76 | 70.30 | 104.66 | – | – | –
4 | CCNC(=O)c1noc(-c2cc(C(C)C)c(O)cc2O)c1-c1ccc(CN2CCOCC2)cc1 [Luminespib] | – | – | – | – | – | 103 | 97.2 | 95.7 | – | – | – | – | 100.90 | 95.70 | 92.81
